Key:
Oryza sativa [1] = assay: Phytotoxicity against Oryza sativa cv. Kinuhikari (rice) planted at 3 cm depth measured after 20 to 25 days; assay type: organism-based; settings: in vivo
Echinochloa oryzicola [2] = assay: Herbicidal activity against Echinochloa oryzicola under greenhouse condition compound treated at emergence stage measured after 14 to 20 days; assay type: functional
[3] = system: Schoenoplectiella juncoides; assay: Herbicidal activity against Schoenoplectiella juncoides under greenhouse condition compound treated at 0.5 leaf stage measured after 14 to 20 days; assay type: functional
[4] = system: Schoenoplectiella juncoides; assay: Herbicidal activity against Schoenoplectiella juncoides at 200 g a.i/ha treated at 2.3-leaf stage measured after 26 days by outdoor concrete pot test; assay type: functional
[5] = system: Schoenoplectiella juncoides; assay: Herbicidal activity against Schoenoplectiella juncoides at 300 g a.i/ha treated at 2.3-leaf stage measured after 26 days by outdoor concrete pot test; assay type: functional
Echinochloa oryzicola [6] = assay: Herbicidal activity against Echinochloa oryzicola compound treated at 2.5-leaf stage measured after 26 days by outdoor concrete pot test; assay type: functional
Pontederia vaginalis [7] = assay: Herbicidal activity against Monochoria vaginalis at 300 g a.i/ha treated at 2.3-leaf stage measured after 26 days by outdoor concrete pot test; assay type: functional
[8] = system: Schoenoplectiella juncoides; assay: Herbicidal activity against Schoenoplectiella juncoides at 100 g a.i/ha treated at 1.6-leaf stage measured after 26 days by outdoor concrete pot test; assay type: functional
Lindernia procumbens [9] = assay: Herbicidal activity against Lindernia procumbens at 300 g a.i/ha treated at 2.3-leaf stage measured after 26 days by outdoor concrete pot test; assay type: functional
Lindernia procumbens [10] = assay: Herbicidal activity against Lindernia procumbens at 100 g a.i/ha treated at 1.6-leaf stage measured after 26 days by outdoor concrete pot test; assay type: functional
Lindernia procumbens [11] = assay: Herbicidal activity against Lindernia procumbens at 200 g a.i/ha treated at emergence stage measured after 26 days by outdoor concrete pot test; assay type: functional
Oryza sativa [12] = assay: Phytotoxicity against Oryza sativa cv. Kinuhikari (rice) at 100 g a.i/ha treated at emergence stage measured after 26 days by outdoor concrete pot test; assay type: organism-based; settings: in vivo, other, 624 h
Lindernia procumbens [13] = assay: Herbicidal activity against Lindernia procumbens compound treated at 1 to 2.2-leaf stage measured after 26 days by outdoor concrete pot test; assay type: functional
Elatine triandra [14] = assay: Herbicidal activity against Elatine triandra at 100 g a.i/ha treated at emergence stage measured after 26 days by outdoor concrete pot test; assay type: functional
Echinochloa oryzicola [15] = assay: Herbicidal activity against Echinochloa oryzicola at 200 g a.i/ha treated at 1.6-leaf stage measured after 26 days by outdoor concrete pot test; assay type: functional
Echinochloa oryzicola [16] = assay: Herbicidal activity against Echinochloa oryzicola at 100 g a.i/ha treated at 1.6-leaf stage measured after 26 days by outdoor concrete pot test; assay type: functional
Elatine triandra [17] = assay: Herbicidal activity against Elatine triandra at 200 g a.i/ha treated at 2.3-leaf stage measured after 26 days by outdoor concrete pot test; assay type: functional
Oryza sativa [18] = assay: Phytotoxicity against Oryza sativa cv. Kinuhikari (rice) at 200 g a.i/ha treated at emergence stage measured after 26 days by outdoor concrete pot test; assay type: organism-based; settings: in vivo, other, 624 h
Oryza sativa [19] = assay: Phytotoxicity against Oryza sativa cv. Kinuhikari (rice) at 100 g a.i/ha treated at 1.6-leaf stage measured after 26 days by outdoor concrete pot test; assay type: organism-based; settings: in vivo, other, 624 h
Oryza sativa [20] = assay: Phytotoxicity against Oryza sativa cv. Kinuhikari (rice) at 300 g a.i/ha treated at 2.3-leaf stage measured after 26 days by outdoor concrete pot test; assay type: organism-based; settings: in vivo, other, 624 h
Pontederia vaginalis [21] = assay: Herbicidal activity against Monochoria vaginalis at 100 g a.i/ha treated at 1.6-leaf stage measured after 26 days by outdoor concrete pot test; assay type: functional
Pontederia vaginalis [22] = assay: Herbicidal activity against Monochoria vaginalis at 200 g a.i/ha treated at 1.6-leaf stage measured after 26 days by outdoor concrete pot test; assay type: functional
[23] = system: Schoenoplectiella juncoides; assay: Herbicidal activity against Schoenoplectiella juncoides at 200 g a.i/ha treated at emergence stage measured after 26 days by outdoor concrete pot test; assay type: functional
[24] = system: Schoenoplectiella juncoides; assay: Herbicidal activity against Schoenoplectiella juncoides compound treated at 0.5-leaf stage measured after 26 days by outdoor concrete pot test; assay type: functional
Oryza sativa [25] = assay: Phytotoxicity against Oryza sativa cv. Kinuhikari (rice) planted at 3 cm depth measured after 26 days; assay type: organism-based; settings: in vivo, 624 h
Pontederia vaginalis [26] = assay: Herbicidal activity against Monochoria vaginalis at 200 g a.i/ha treated at emergence stage measured after 26 days by outdoor concrete pot test; assay type: functional
Rotala indica [27] = assay: Herbicidal activity against Rotala indica at 300 g a.i/ha treated at 2.3-leaf stage measured after 26 days by outdoor concrete pot test; assay type: functional
Elatine triandra [28] = assay: Herbicidal activity against Elatine triandra at 200 g a.i/ha treated at emergence stage measured after 26 days by outdoor concrete pot test; assay type: functional
Elatine triandra [29] = assay: Herbicidal activity against Elatine triandra compound treated at 1 to 2.2-leaf stage measured after 26 days by outdoor concrete pot test; assay type: functional
Pontederia vaginalis [30] = assay: Herbicidal activity against Monochoria vaginalis at 100 g a.i/ha treated at emergence stage measured after 26 days by outdoor concrete pot test; assay type: functional
Echinochloa oryzicola [31] = assay: Herbicidal activity against Echinochloa oryzicola at 200 g a.i/ha treated at emergence stage measured after 26 days by outdoor concrete pot test; assay type: functional
Rotala indica [32] = assay: Herbicidal activity against Rotala indica at 200 g a.i/ha treated at 2.3-leaf stage measured after 26 days by outdoor concrete pot test; assay type: functional
[33] = system: Schoenoplectiella juncoides; assay: Herbicidal activity against Schoenoplectiella juncoides at 100 g a.i/ha treated at emergence stage measured after 26 days by outdoor concrete pot test; assay type: functional
Rotala indica [34] = assay: Herbicidal activity against Rotala indica at 200 g a.i/ha treated at 1.6-leaf stage measured after 26 days by outdoor concrete pot test; assay type: functional
Echinochloa oryzicola [35] = assay: Herbicidal activity against Echinochloa oryzicola compound treated at emergence stage measured after 26 days by outdoor concrete pot test; assay type: functional
Oryza sativa [36] = assay: Phytotoxicity against Oryza sativa cv. Kinuhikari (rice) at 200 g a.i/ha treated at 2.3-leaf stage measured after 26 days by outdoor concrete pot test; assay type: organism-based; settings: in vivo, other, 624 h
Rotala indica [37] = assay: Herbicidal activity against Rotala indica at 100 g a.i/ha treated at emergence stage measured after 26 days by outdoor concrete pot test; assay type: functional
Echinochloa oryzicola [38] = assay: Herbicidal activity against Echinochloa oryzicola at 200 g a.i/ha treated at 2.3-leaf stage measured after 26 days by outdoor concrete pot test; assay type: functional
Lindernia procumbens [39] = assay: Herbicidal activity against Lindernia procumbens at 200 g a.i/ha treated at 1.6-leaf stage measured after 26 days by outdoor concrete pot test; assay type: functional
Echinochloa oryzicola [40] = assay: Herbicidal activity against Echinochloa oryzicola at 300 g a.i/ha treated at 2.3-leaf stage measured after 26 days by outdoor concrete pot test; assay type: functional
Echinochloa oryzicola [41] = assay: Herbicidal activity against Echinochloa oryzicola at 100 g a.i/ha treated at emergence stage measured after 26 days by outdoor concrete pot test; assay type: functional
Rotala indica [42] = assay: Herbicidal activity against Rotala indica compound treated at 1 to 2.2-leaf stage measured after 26 days by outdoor concrete pot test; assay type: functional
Oryza sativa [43] = assay: Phytotoxicity against Oryza sativa cv. Kinuhikari (rice) at 200 g a.i/ha treated at 1.6-leaf stage measured after 26 days by outdoor concrete pot test; assay type: organism-based; settings: in vivo, other, 624 h
Pontederia vaginalis [44] = assay: Herbicidal activity against Monochoria vaginalis at 200 g a.i/ha treated at 2.3-leaf stage measured after 26 days by outdoor concrete pot test; assay type: functional
Rotala indica [45] = assay: Herbicidal activity against Rotala indica at 200 g a.i/ha treated at emergence stage measured after 26 days by outdoor concrete pot test; assay type: functional
Lindernia procumbens [46] = assay: Herbicidal activity against Lindernia procumbens at 100 g a.i/ha treated at emergence stage measured after 26 days by outdoor concrete pot test; assay type: functional
Elatine triandra [47] = assay: Herbicidal activity against Elatine triandra at 300 g a.i/ha treated at 2.3-leaf stage measured after 26 days by outdoor concrete pot test; assay type: functional
Elatine triandra [48] = assay: Herbicidal activity against Elatine triandra at 200 g a.i/ha treated at 1.6-leaf stage measured after 26 days by outdoor concrete pot test; assay type: functional
Lindernia procumbens [49] = assay: Herbicidal activity against Lindernia procumbens at 200 g a.i/ha treated at 2.3-leaf stage measured after 26 days by outdoor concrete pot test; assay type: functional
[50] = system: Schoenoplectiella juncoides; assay: Herbicidal activity against Schoenoplectiella juncoides at 200 g a.i/ha treated at 1.6-leaf stage measured after 26 days by outdoor concrete pot test; assay type: functional
Rotala indica [51] = assay: Herbicidal activity against Rotala indica at 100 g a.i/ha treated at 1.6-leaf stage measured after 26 days by outdoor concrete pot test; assay type: functional
Elatine triandra [52] = assay: Herbicidal activity against Elatine triandra at 100 g a.i/ha treated at 1.6-leaf stage measured after 26 days by outdoor concrete pot test; assay type: functional
Echinochloa oryzicola [53] = assay: Herbicidal activity against Echinochloa oryzicola under greenhouse condition compound treated at 2.5 leaf stage measured after 14 to 20 days; assay type: functional

Q: `CN(C)C(=O)OC(c1cnccc1C(F)(F)F)c1cnccc1C(F)(F)F` was tested. Which ED20 (Oryza sativa [1]) did it give?
A: Its ED20 is < 250 gAi/ha.

Q: And the ED80 (Echinochloa oryzicola [2])?
A: Its ED80 is 63 gAi/ha.

Q: What about the ED80 [3] of the same molecule?
A: The ED80 was 63 gAi/ha.

Q: `CN(C)C(=O)OC(c1cnccc1C(F)(F)F)c1cccc2ccccc12` (racemic) was tested. Which Efficacy [4] did it give?
A: The Efficacy was 0%.

Q: And the Efficacy [5]?
A: Its Efficacy is 0%.

Q: What about the ED80 (Echinochloa oryzicola [6]) of the same molecule?
A: The ED80 was 125 gAi/ha.

Q: What about the Efficacy (Pontederia vaginalis [7]) of the same molecule?
A: The Efficacy was 100%.

Q: And the Efficacy [8]?
A: Its Efficacy is 0%.

Q: What about the Efficacy (Lindernia procumbens [9]) of the same molecule?
A: The Efficacy was 100%.

Q: What about the Efficacy (Lindernia procumbens [10]) of the same molecule?
A: The Efficacy was 100%.

Q: What about the Efficacy (Lindernia procumbens [11]) of the same molecule?
A: The Efficacy was 100%.

Q: And the Efficacy (Oryza sativa [12])?
A: The Efficacy was 11%.

Q: And the ED20 (Oryza sativa [1])?
A: Its ED20 is 2000 gAi/ha.

Q: And the ED80 (Lindernia procumbens [13])?
A: Its ED80 is 100 gAi/ha.

Q: What about the Efficacy (Elatine triandra [14]) of the same molecule?
A: The Efficacy was 100%.

Q: What about the Efficacy (Echinochloa oryzicola [15]) of the same molecule?
A: The Efficacy was 95%.

Q: And the Efficacy (Echinochloa oryzicola [16])?
A: Its Efficacy is 95%.

Q: What about the Efficacy (Elatine triandra [17]) of the same molecule?
A: The Efficacy was 100%.

Q: And the Efficacy (Oryza sativa [18])?
A: The Efficacy was 16%.

Q: And the Efficacy (Oryza sativa [19])?
A: Its Efficacy is 0%.

Q: And the Efficacy (Oryza sativa [20])?
A: The Efficacy was 6%.

Q: And the Efficacy (Pontederia vaginalis [21])?
A: Its Efficacy is 89%.

Q: And the Efficacy (Pontederia vaginalis [22])?
A: The Efficacy was 100%.

Q: What about the Efficacy [23] of the same molecule?
A: Its Efficacy is 0%.

Q: What about the ED80 [24] of the same molecule?
A: The ED80 was 250 gAi/ha.

Q: And the ED20 (Oryza sativa [25])?
A: The ED20 was 2000 gAi/ha.

Q: What about the Efficacy (Pontederia vaginalis [26]) of the same molecule?
A: Its Efficacy is 100%.

Q: What about the Efficacy (Rotala indica [27]) of the same molecule?
A: The Efficacy was 100%.

Q: And the Efficacy (Elatine triandra [28])?
A: The Efficacy was 100%.

Q: What about the ED80 (Elatine triandra [29]) of the same molecule?
A: The ED80 was 100 gAi/ha.

Q: What about the Efficacy (Pontederia vaginalis [30]) of the same molecule?
A: The Efficacy was 100%.

Q: What about the Efficacy (Echinochloa oryzicola [31]) of the same molecule?
A: Its Efficacy is 100%.

Q: What about the Efficacy (Rotala indica [32]) of the same molecule?
A: The Efficacy was 100%.

Q: And the Efficacy [33]?
A: The Efficacy was 0%.

Q: What about the Efficacy (Rotala indica [34]) of the same molecule?
A: The Efficacy was 100%.

Q: What about the ED80 (Echinochloa oryzicola [35]) of the same molecule?
A: The ED80 was 31 gAi/ha.

Q: And the Efficacy (Oryza sativa [36])?
A: Its Efficacy is 0%.

Q: And the ED80 (Echinochloa oryzicola [2])?
A: The ED80 was 31 gAi/ha.

Q: And the Efficacy (Rotala indica [37])?
A: The Efficacy was 100%.

Q: What about the Efficacy (Echinochloa oryzicola [38]) of the same molecule?
A: Its Efficacy is 95%.

Q: What about the Efficacy (Lindernia procumbens [39]) of the same molecule?
A: The Efficacy was 100%.

Q: What about the ED80 [3] of the same molecule?
A: Its ED80 is 250 gAi/ha.

Q: What about the Efficacy (Echinochloa oryzicola [40]) of the same molecule?
A: Its Efficacy is 95%.

Q: And the Efficacy (Echinochloa oryzicola [41])?
A: Its Efficacy is 100%.

Q: And the ED80 (Rotala indica [42])?
A: Its ED80 is 100 gAi/ha.

Q: And the Efficacy (Oryza sativa [43])?
A: The Efficacy was 0%.

Q: And the Efficacy (Pontederia vaginalis [44])?
A: Its Efficacy is 99%.

Q: And the Efficacy (Rotala indica [45])?
A: The Efficacy was 100%.

Q: What about the Efficacy (Lindernia procumbens [46]) of the same molecule?
A: The Efficacy was 100%.

Q: What about the Efficacy (Elatine triandra [47]) of the same molecule?
A: The Efficacy was 100%.

Q: What about the Efficacy (Elatine triandra [48]) of the same molecule?
A: The Efficacy was 100%.

Q: And the Efficacy (Lindernia procumbens [49])?
A: Its Efficacy is 100%.

Q: And the Efficacy [50]?
A: Its Efficacy is 0%.

Q: And the Efficacy (Rotala indica [51])?
A: Its Efficacy is 100%.

Q: What about the Efficacy (Elatine triandra [52]) of the same molecule?
A: The Efficacy was 100%.

Q: And the ED80 (Echinochloa oryzicola [53])?
A: Its ED80 is 125 gAi/ha.
